# Experimental data reported in patent US20140065237A1, “BIOLOGICALLY ACTIVE FOOD ADDITIVE FOR THE PROPHYLAXIS OF ERECTILE DYSFUNCTION IN MEN” (priority 2011, published 2014).
# Test system: men with the diagnosis of erectile dysfunction and chronic prostatitis
# Experiment: Clinical study of the BAA versus its single components (IIEF questionnaire, patient diaries), medical center "Secrets of Longevity"
# Assay type: in vivo, human
# Settings: 2 tablets twice a day
# Description: For the prevention of erectile dysfunction, the BAA in compound of L-Arginine—250 mg, drone brood—50 mg is taken by 2 tablets two times per day during one month out of meals. An interval during the intake is one month. […] The study included […] with the diagnosis of erectile dysfunction and chronic prostatitis, at the age from 30 to 50 years old (average age is 43). The duration of erectile dysfunction was from 6 months to 3 years (average duration is one year). A consent was received from all males participated in the study.
# The experimental group (10 patients) was appointed to the proposed agent by 2 tablets twice a day in the morning hours. The 1-st experimental group (10 patients) was administered L-Arginine—250 mg, 2 tablets 2 times per day in the morning hours.
# The 2-nd experimental group (10 patients) was administered drone brood—50 mg, 2 tablets 2 times per day in the morning hours. Patients' examination involved the checkup, collection of complains in accordance with the symptoms scale 1P88, and questionnaire of International Index of Erectile Function (IIEF), with consideration of objective factors: ultrasound investigation of prostate gland, clinical blood analysis, urine test, including the results of prostate gland palpation. Patients' examination took place before and after the agent prescription.
# An efficiency of the claimed agent was evaluated by the change of IIEF's exponents. Within a week, prior to and during the course of agent intake, patients were keeping a diary of disease estimation, and they recorded the frequency and degree of sexual attraction, valuation of erection, frequency of sexual intercourse and their sensations in each case.
smiles,measurement,setting,value
N=C(N)NCCC[C@H](N)C(=O)O [L-Arginine],full sexual relations provided or not,,not providing the full sexual relations
same,effect starts within ... after taking of the agent,irrespective of age and extent of sexual disorder,2 to 3 h
same,erectile function,10 patients per group,20%
same,"feeling of orgasm, change of sensations",10 patients per group,20%
same,number of ejaculations has grown up (share of cases),10 patients per group,20%
same,overall satisfaction,10 patients per group,20%
same,refractory period after the emission of seminal fluid has not changed (share of patients),10 patients per group,100%
same,sexual intercourse satisfaction,10 patients per group,20%
same,strengthening of sexual attraction (libido) recorded (share of cases),10 patients per group,100%
